Test [1] concerns the target T1, human GPBAR1 (Homo sapiens, UniProt Q8TDU6).
T1 construct: expressed in transfected cells; host or cells: HEK-293T
T1 sequence (Q8TDU6 1-330): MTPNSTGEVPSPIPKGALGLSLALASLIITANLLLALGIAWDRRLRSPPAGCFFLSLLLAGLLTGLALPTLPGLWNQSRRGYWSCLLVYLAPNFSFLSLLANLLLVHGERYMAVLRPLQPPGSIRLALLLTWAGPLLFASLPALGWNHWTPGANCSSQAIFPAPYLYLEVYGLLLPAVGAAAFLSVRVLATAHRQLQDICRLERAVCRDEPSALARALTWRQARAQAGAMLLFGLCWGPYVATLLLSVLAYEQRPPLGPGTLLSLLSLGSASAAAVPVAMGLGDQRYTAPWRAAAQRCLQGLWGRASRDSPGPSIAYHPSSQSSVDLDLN
The experiment in a line: GPBAR1 mediated transactivation, CRE-luciferase reporter in transfected HEK-293T cells. Format: cell-based. Conditions: for pEC50: HEK-293T CRE-luciferase transactivation; for GPBAR1 (% of activity in comparison to 10 μM TLCA): compound at 10 microM, HEK-293T, TLCA = 100%, triplicate; for GPBAR1/FXR selectivity: ratio between % of activity toward GPBAR1 and % of activity toward FXR. As to the method: (§1) Selected compounds were tested in vitro on FXR and TGR5/GPBAR1 receptors (Table 1) using a whole cell model transfected with a reporter genes. The activity was evaluated in comparison with chenodeoxycholic acid (CDCA) and TLCA.
(§2) CDCA is a primary bile acid that functions as an endogenous ligand for FXR, while TLCA is a physiological ligand for TGR5/GPBAR1. In this assay, HepG2 cells (a liver-derived cell line) were cultured at 37° C. in minimum essential medium with Earl's salts containing 10% fetal bovine serum (FBS), 1% L-glutamine, and 1% penicillin/streptomycin. HEK-293T cells were cultured at 37° C. in D-MEM containing 10% fetal bovine serum (FBS), 1% L-glutamine, and 1% penicillin/streptomycin. The transfection experiments were performed using Fugene HD according to manufactured specifications. Cells were plated in a 24-well plate at 5×10^4 cells/well. For FXR mediated transactivation, HepG2 cells were transfected with 100 ng of pSG5-FXR, 100 ng of pSG5-RXR, 100 ng of pGL4.70 a vector encoding the human Renilla gene and 250 ng of the reporter vector p(hsp27)-TK-LUC containing the FXR response element IR1 cloned from the promoter of heat shock protein 27 (hsp27).
For GPBAR1 mediated transactivation, HEK-293T cells were transfected with 200 ng of pGL4.29, a reporter vector containing a cAMP response element (CRE) that drives the transcription of the luciferase reporter gene luc2P, with 100 ng of pCMVSPORT6-human GPBAR1, and with 100 ng of pGL4.70 a vector encoding the human Renilla gene. In control experiments HEK-293T cells were transfected only with vectors pGL4.29 and pGL4.70 to exclude any possibility that compounds could activate the CRE in a GPBAR1 independent manner. At 24 h post-transfection, cells were stimulated for 18 h with 10 μM TLCA as a control agent or putative GPBAR1 agonists as the same concentration. After treatments, cells were lysed in 100 μL of lysis buffer (25 mM Tris-phosphate, pH 7.8; 2 mM DTT; 10% glycerol; 1% Triton X-100), and 20 μL of cellular lysate was assayed for luciferase activity using the luciferase assay system. Luminescence was measured using Glomax 20/20 luminometer. Luciferase activities were normalized against Renilla activities. Antagonism against FXR of GPBAR1/TGR5 was measured as percent of activity in transactivation assay suing activity of TLCA as example of agonism.
(§3) The data on the activity of certain compounds of the invention on TGR5/GPBAR1 are described in the following table 1. In this table, activities for compounds of the invention on GPBAR1 was compared to those of the reference compound TLCA. For % of activity, each compound was tested at the concentration of 10 microM and transactivation activity of TLCA on CRE (i.e. TGR5/GPBAR1) was considered equal to 100%. For selectivity toward FXR, activity was assessed in HepG2 cells transfected with an FXR responsive element (IR1) cloned upstream to the luciferase gene. For calculation of efficacy data, maximal transactivation of IR1 caused by each compound (10 μM) was compared to maximal transactivation caused by CDCA (10 μM). GPBAR1/FXR selectivity calculated as ratio between % of activity toward GPBAR1 and % of activity toward FXR. Each experiment was conducted in triplicate.

Test [2] concerns the target T2, FXR (Homo sapiens, UniProt Q96RI1).
T2 construct: expressed in transfected cells; host or cells: HepG2
T2 sequence (Q96RI1 1-486): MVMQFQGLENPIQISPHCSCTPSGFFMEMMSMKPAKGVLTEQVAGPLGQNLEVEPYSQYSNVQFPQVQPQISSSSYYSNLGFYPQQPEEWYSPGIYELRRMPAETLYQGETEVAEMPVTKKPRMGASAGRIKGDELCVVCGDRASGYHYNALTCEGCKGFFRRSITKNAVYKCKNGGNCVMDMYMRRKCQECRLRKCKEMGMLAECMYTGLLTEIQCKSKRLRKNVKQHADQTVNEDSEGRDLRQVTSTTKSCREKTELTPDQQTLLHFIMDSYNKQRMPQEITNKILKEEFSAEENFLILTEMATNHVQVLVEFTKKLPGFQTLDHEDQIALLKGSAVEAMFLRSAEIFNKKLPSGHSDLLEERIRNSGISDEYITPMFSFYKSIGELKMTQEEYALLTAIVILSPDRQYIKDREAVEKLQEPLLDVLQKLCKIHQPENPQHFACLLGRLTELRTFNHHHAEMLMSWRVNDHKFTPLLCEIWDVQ
T2 sequence (P19793 1-462 partner): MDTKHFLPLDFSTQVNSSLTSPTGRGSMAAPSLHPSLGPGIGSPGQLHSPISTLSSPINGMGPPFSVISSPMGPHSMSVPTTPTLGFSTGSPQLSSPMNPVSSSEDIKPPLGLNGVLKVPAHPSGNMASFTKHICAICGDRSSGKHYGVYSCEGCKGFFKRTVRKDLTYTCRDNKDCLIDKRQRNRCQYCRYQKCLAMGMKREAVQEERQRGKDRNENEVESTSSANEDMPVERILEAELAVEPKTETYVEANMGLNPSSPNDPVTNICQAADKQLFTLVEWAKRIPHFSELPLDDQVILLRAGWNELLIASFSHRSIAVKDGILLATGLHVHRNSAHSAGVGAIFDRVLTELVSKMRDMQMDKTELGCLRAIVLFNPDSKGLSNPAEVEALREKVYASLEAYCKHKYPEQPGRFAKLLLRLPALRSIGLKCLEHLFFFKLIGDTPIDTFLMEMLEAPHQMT
The experiment in a line: FXR mediated transactivation, IR1 (hsp27)-luciferase reporter in transfected HepG2 cells. It counts as cell-based. Conditions: compound at 10 μM, HepG2, vs maximal transactivation by CDCA 10 μM, triplicate. On the procedure: as §1, §2, §3
On the technique in general: In a reporter assay the amount or activity of a reporter protein is the signal.

pEC50: −log10 of the molar value.

With `C[C@H](CC#N)[C@H]1CC[C@H]2[C@@H]3C[C@@](C)(O)[C@@H]4C[C@H](O)CC[C@]4(C)[C@H]3CC[C@]12C` [PBT109A, 3α, 6β-dihydroxy-6α-methyl-24-nor-5β-cholan-23-nitrile], in test [1], the pEC50 was 6.24, the “GPBAR1 (% of activity in comparison to 10 μM TLCA)” value is on record as 83.4 ± 2.4% and the GPBAR1/FXR selectivity was 15.1. Also, the “FXR (% of activity in comparison to 10 μM CDCA)” value in test [2] came to 5.5 ± 0.7%.

On to `C[C@H](CC#N)[C@H]1CC[C@H]2[C@@H]3C[C@](C)(O)[C@@H]4C[C@H](O)CC[C@]4(C)[C@H]3CC[C@]12C` [PBT109B, 3α,6α-dihydroxy-6β-methyl-24-nor-5β-cholan-23-nitrile], for which, in test [1], the pEC50 is 5.16, the “GPBAR1 (% of activity in comparison to 10 μM TLCA)” value came out at 95.4 ± 0.24% and the GPBAR1/FXR selectivity was 14.9. Also, the “FXR (% of activity in comparison to 10 μM CDCA)” value in test [2] is 6.4 ± 0.23%.

In the case of `CC[C@@]1(O)C[C@H]2[C@@H]3CC[C@H]([C@H](C)CC#N)[C@@]3(C)CC[C@@H]2[C@@]2(C)CC[C@@H](O)C[C@@H]12` [PBT110A, 3α,6β-dihydroxy-6α-ethyl-24-nor-5β-cholan-23-nitrile], in test [1], the pEC50 was 6.18, the “GPBAR1 (% of activity in comparison to 10 μM TLCA)” value was determined as 65.9 ± 1.69% and the GPBAR1/FXR selectivity was 9.9. Moreover, in test [2], the “FXR (% of activity in comparison to 10 μM CDCA)” value is reported as 6.6 ± 0.065%.

As for `CCC[C@]1(O)C[C@H]2[C@@H]3CC[C@H]([C@H](C)CC#N)[C@@]3(C)CC[C@@H]2[C@@]2(C)CC[C@@H](O)C[C@@H]12` [PBT111, 3α,6α-dihydroxy-6β-propyl-24-nor-5β-cholan-23-nitrile], in test [1], the pEC50 is 5.92, the “GPBAR1 (% of activity in comparison to 10 μM TLCA)” value is 67.1 ± 2.1% and the GPBAR1/FXR selectivity is reported as 21.6. Further, the “FXR (% of activity in comparison to 10 μM CDCA)” value in test [2] is on record as 3.1 ± 0.29%.

Turning to `CC(C)[C@]1(O)C[C@@H]2[C@H](CC[C@]3(C)[C@@H]([C@H](C)CC#N)CC[C@@H]23)[C@@]2(C)CC[C@@H](O)C[C@H]21` [PBT112, 3α, 6α-dihydroxy-6β-isopropyl-24-nor-5β-cholane-23-nitrile], in test [1], the pEC50 is 5.56, the “GPBAR1 (% of activity in comparison to 10 μM TLCA)” value came to 22.2 ± 0.13% and the GPBAR1/FXR selectivity is reported as 5.16. Further, in test [2], the “FXR (% of activity in comparison to 10 μM CDCA)” value is given as 4.3 ± 0.31%.

Regarding `C=C[C@]1(O)C[C@@H]2[C@H](CC[C@]3(C)[C@@H]([C@H](C)CC#N)CC[C@@H]23)[C@@]2(C)CC[C@@H](O)C[C@H]21` [PBT113, 3α, 6α-dihydroxy-6β-vinyl-24-nor-5β-cholane-23-nitrile], in test [1], the pEC50 was 5.65, the “GPBAR1 (% of activity in comparison to 10 μM TLCA)” value is reported as 62.5 ± 2.18% and the GPBAR1/FXR selectivity is recorded as 28.4. Moreover, the “FXR (% of activity in comparison to 10 μM CDCA)” value in test [2] is on record as 2.2 ± 0.5%.

As to `C=CCCC[C@]1(O)C[C@H]2[C@@H]3CC[C@H]([C@H](C)CC#N)[C@@]3(C)CC[C@@H]2[C@@]2(C)CC[C@@H](O)C[C@@H]12` [PBT114, 3α, 6α-dihydroxy-6β-(4-Pentenyl)-24-Nor-5β-Cholane-23-Nitrile], in test [1], the pEC50 was 6.11, the “GPBAR1 (% of activity in comparison to 10 μM TLCA)” value is listed as 90.1 ± 1.35% and the GPBAR1/FXR selectivity was 56.31. Moreover, in test [2], the “FXR (% of activity in comparison to 10 μM CDCA)” value is recorded as 1.6 ± 0.05%.

As for `C[C@H](CC#N)[C@H]1CC[C@H]2[C@@H]3C[C@@](O)(c4ccccc4)[C@@H]4C[C@H](O)CC[C@]4(C)[C@H]3CC[C@]12C` [PBT115, 3α, 6α-dihydroxy-6β-phenyl-24-nor-5β-cholane-23-nitrile], in test [1], the pEC50 is 5.34, the “GPBAR1 (% of activity in comparison to 10 μM TLCA)” value was 38.8 ± 1.79% and the GPBAR1/FXR selectivity turned out to be 2.13. For the same compound, the “FXR (% of activity in comparison to 10 μM CDCA)” value in test [2] came to 18.2 ± 1.08%.

Consider `C[C@H](CC#N)[C@H]1CC[C@H]2[C@@H]3C[C@](O)(Cc4ccccc4)[C@@H]4C[C@H](O)CC[C@]4(C)[C@H]3CC[C@]12C` [PBT117, 3α,6β-dihydroxy-6α-benzyl-24-nor-5β-cholane-23-nitrile], for which, in test [1], the pEC50 is 5.03, the “GPBAR1 (% of activity in comparison to 10 μM TLCA)” value was determined as 8.3 ± 0.015% and the GPBAR1/FXR selectivity worked out at 1.88. For the same compound, the “FXR (% of activity in comparison to 10 μM CDCA)” value in test [2] is on record as 4.4 ± 0.49%.

By pEC50 is commonly meant the EC50 on a negative log10 scale, so that one unit is a factor of ten.

Source of the values: patent publication US20230066156A1, “6-SUBSTITUTED, 22-CYANO HYODEOXYCHOLANIC ANALOGUES AND USES THEREOF” (PRECISION BIO-THERAPEUTICS S.R.L., priority 2019, published 2023).
